From patent publication EP2899531B1, “Method for detecting a chiral analytes” (Jacobs University Bremen gGmbH, priority 2013, dated 2015)
Peptide text beside a SMILES is read from it.

Tests used:
[1] = tested on: CB8-MDAP; assay: Binding constants of chiral analytes with CB8-MDAP receptor complex, UV/Vis titration; conditions: CB8-MDAP (100 µM), H2O, 22 °C; from UV/Vis titrations, estimated error ≤ 10%
Text: (§1) Bindungskonstanten zwischen CB8-Farbstoff-Komplexen und den in Tabelle 1 aufgeführten Analyten wurden mittels UV/Vis-Titration in H2O, sofern nicht anders angegeben, durchgeführt. Zu einer Lösung aus dem CB8-Farbstoff-Rezeptor wurde schrittweise eine Lösung des Analyten gegeben, und die UV/Vis-Spektren wurden aufgezeichnet. Die normalisierte Absorption bei 419 nm (CB8-MDAP) oder bei 443 nm (CB8-MDPP) wurde mit einer Gleichung für eine 1:1-Bindung mittels der Kleinstquadratmethode angepasst ([50]).

[2] = tested on: CB8-MDPP; assay: Binding constants of chiral analytes with CB8-MDPP receptor complex, ICD titration; conditions: CB8-MDPP (20 µM), H2O, 22 °C; obtained by ICD titration
Text: Die Bindungsaffinitäten der strukturell verschiedenartigen Analyten lagen im Bereich von 10^3 bis 10^6 M^-1, wodurch eine hochempfindliche Detektion ermöglicht wird. Die durch ICD-Titrationen ermittelten Bindungskonstanten bestätigten die durch UV/Vis-Messungen ermittelten. In allen Fällen fungiert CB8 als unverzichtbare Grundlage für die ICD-Effekte. […] Wie erwartet, ergab ein anderer Reporter-Farbstoff, MDAP oder MVE, jeweils ein anderes ICD-Spektrum, jedoch bei gleichermaßen niedriger Analytenkonzentration (40-100 µM, im Vergleich zu 20 µM, s. Tabelle 4, Fig. 3).

[3] = tested on: CB8-MDPP; assay: Binding constants of chiral analytes with CB8-MDPP receptor complex, UV/Vis titration; conditions: CB8-MDPP (20 µM), H2O, 22 °C; from UV/Vis titrations, estimated error ≤ 10%
Text: as §1

Ka [1]	Ka [2]	Ka [3]	SMILES
11 10^3 M^-1	1400^d 10^3 M^-1	1500 10^3 M^-1	CC(C)[C@H](NC(=O)[C@@H](N)Cc1ccccc1)C(=O)O [PheVal] (H-Phe-Val-OH)
50 10^3 M^-1	–	430 10^3 M^-1	N[C@@H](Cc1c[nH]c2ccccc12)C(=O)N1CCC[C@H]1C(=O)O [TrpPro] (H-Trp-Pro-OH)
–	–	200 10^3 M^-1	N[C@@H](Cc1c[nH]c2ccccc12)C(=O)NCC(=O)NCC(=O)O [TrpGlyGly] (H-Trp-Gly-Gly-OH)

The remaining lines, values behind:

SMILES	Ka [1]	Ka [2]	Ka [3]
N[C@@H](Cc1ccccc1)C(=O)NCC(=O)O [PheGly] (H-Phe-Gly-OH)	25 10^3 M^-1	–	1900 10^3 M^-1
N[C@@H](CCC(=O)O)C(=O)N[C@@H](Cc1c[nH]c2ccccc12)C(=O)O [GluTrp] (H-Glu-Trp-OH)	25 10^3 M^-1	–	210 10^3 M^-1
NCC(=O)N[C@@H](Cc1c[nH]c2ccccc12)C(=O)NCC(=O)O [GlyTrpGly] (H-Gly-Trp-Gly-OH)	–	–	5000 10^3 M^-1
N[C@@H](CC(=O)O)C(=O)N[C@@H](Cc1ccccc1)C(=O)O [AspPhe] (H-Asp-Phe-OH)	0.8 10^3 M^-1	–	7 10^3 M^-1
